US8859580B2 (Boehringer Ingelheim International GmbH, priority 2007, dated 2014)

Molecular target: T1, 11β-HSD1 (Homo sapiens, UniProt P28845)
T1 construct: detecting cortisol generated from cortisterone by human liver microsomes; from tissue; host or cells: human liver microsomes
Assay: In vitro inhibition of 11β-HSD1, HTRF detection of cortisol generated from cortisone by human liver microsomes
Format: biochemical
Conditions: 11β-HSD IC50 (nM), 1 hour at 37° C., pH 6.0, NADPH 200 μM, cortisone 80 nM, inhibition relative to carbenoxolone signal
How it was run: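 Inhibition expressed against the carbenoxolone signal and fitted to IC50 curves. Readout: HTRF competition between microsomal cortisol and XL665-labelled cortisol for Eu-cryptate anti-cortisol antibody (typically 2 h), with emission ratio 665/615 calibrated to cortisol concentration.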

T1 sequence (P28845 whole entry): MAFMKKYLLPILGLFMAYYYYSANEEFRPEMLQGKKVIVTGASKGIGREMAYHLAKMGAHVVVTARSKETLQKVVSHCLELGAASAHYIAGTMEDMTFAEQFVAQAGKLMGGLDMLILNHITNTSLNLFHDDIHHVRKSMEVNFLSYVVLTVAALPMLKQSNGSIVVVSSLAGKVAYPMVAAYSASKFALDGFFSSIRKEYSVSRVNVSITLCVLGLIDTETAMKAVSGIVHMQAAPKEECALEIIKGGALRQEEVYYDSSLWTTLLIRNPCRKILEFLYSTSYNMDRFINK

`COc1ccccc1C(=O)N1CC[C@@]2(C)c3cccc(O)c3C[C@@H]1C2(C)C` [Example 6, [(2R,6S)-10-Hydroxy-6,11,11-trimethyl-1,2,5,6-tetrahydro-4H-2,6-methano-benzo[d]azocin-3-yl)-(2-methoxy-phenyl]-methanone] gave an IC50 of 1060 nM.
